Measured values from patent US11413285B2, “PDE III inhibitors for treatment of asymptomatic heart failure” (priority 2004, dated 2022).
Where a name gives a salt, the structure may show the parent alone. Read-outs that look alike come from different tables or passages of the source.

What was measured:
[1] = test system: dogs suffering of occult dilated cardiomyopathy; assay: Study in dogs with occult dilated cardiomyopathy (ISACHC class I); assay type: in vivo, dog
Source text: A study is done with pimobendan ([…]®) in dogs suffering of occult dilated cardiomyopathy. Inclusion criteria were dogs which are diagnosed to have a congestive heart failure of class I according to the […]-score due to dilated cardiomyopathy (DCM). Dogs having a having an asymptomatic (occult) heart failure, e.g. asymptomatic DCM must have reduced contractility of the heart or other signs of reduced cardiac efficacy such as volume overload or ventricle dilatation as confirmed by echocardiography. The dogs stay under mono-therapy until signs of congestive heart failure are developing, deteriorate to heart insufficiency score ([…]) class II or III a or b. After confirmation of the congestion by X-ray-radiography the dogs receive furosemid treatment or if the clinical or echocardiographic results makes the addition of another heart failure treatment necessary (primary endpoint). The dogs will be investigated at day 0 prior to first treatment and then approximately 3 month post initiation of the therapy. […] An Echo is performed prior to initiation of therapy (Day 0) and at the following visits to support the clinical diagnosis and to evaluate the effect of the drugs on the contractility of the heart. The echocardiography is performed according to the cardiologic case report form for Irish Wolfhounds. The primary parameter investigated will be the heart insufficiency score ([…]). […]

[2] = test system: dogs with clinically overt heart failure due to valve insufficiency; assay: Double-blind randomized positive controlled multi-centre field trial, pimobendan versus benazepril; assay type: in vivo, dog; settings: for dogs that died or were euthanised due to cardiac reasons: 56-days study period, 41 dogs pimobendan group, 35 dogs benazepril group; for ISACHC classification Ib (Score=2), no clinical symptoms, share of cases / overall efficacy rated as very good or good, share of cases: Day 56; for ISACHC heart failure classification improved, share of cases: after the 56 day treatment period; for median survival time: long-term survival data
Protocol: A double-blind randomized positive controlled multi-centre field trial has been carried out in order to evaluate the clinical efficacy of pimobendan treatment at a daily dose of 0.4-0.6 mg/kg in comparison to an angiotensin-converting-enzyme (ACE) inhibitor treatment with benazepril hydrochloride at a daily dose of approximately 0.25-0.5 mg/kg body weight. Both treatments could be combined with furosemide (up to 8 mg/kg per day) or anti-arrhythmic drugs as appropriate. The study was conducted at 11 centers in Europe by experienced veterinary cardiologists under the rules of Good Clinical Practice (GCP). Mandatory minimum duration of treatment was 56 days for each patient. Dogs were examined on Day 0 prior to first treatment and on Day 7 and 56 after initiation of therapy. In order to obtain long-term survival data, the investigator had the option to continue therapy after Day 56. In the optional study period treatment code for the animal was decoded, as it was not allowed to add pimobendan to the benazepril group, in order to maintain an appropriate […] control group. All other licensed concomitant therapies were allowed. For survival analysis, animals that dropped out or changed treatment due to therapy failure were also rated as dead. However, these cases were statistically evaluated as censored data.
Primary parameter for conclusion on efficacy was the clinical severity of heart failure symptoms, classified according to the recommendations of the International Small Animal Cardiac Health Council (ISACHC). Secondary parameters were exercise tolerance, demeanor, findings of the respiratory and circulatory system, overall efficacy rating, as well as, echocardiography data.
Overall 76 dogs, 41 dogs in the pimobendan group and 35 dogs in the benazepril group were included. […] Mean duration of symptoms prior to inclusion was 4.05 months in the pimobendan and 2.77 months in the benazepril group. There were no clinically relevant differences between the groups prior to initiation of therapy in any of the parameters investigated.
The radiographs have been made in a left to right lateral view. For the determination of cardiac size a vertebral scale system was used.
In the lateral radiographs, the long axis of the heart (L) was measured with a caliper extending from the ventral aspect of the left main stem bronchus (tracheal bifurcation hilus, carina) to the most distant contour of the left ventricular apex. The caliper was repositioned along the vertebral column beginning at the cranial edge of the 4th thoracic vertebra. The length of the heart was recorded as the number of vertebrae caudal of that point and estimated to the nearest 0.1 of a vertebra. The maximum perpendicular short axis (S) was measured in the same manner beginning at the 4th thoracic vertebra.
The length in vertebrae (v) of the long and short axes were then added to obtain a vertebral heart sum (VHS) which provided a single number representing heart size proportionate to the size of the dog. The normal range of VHS in healthy dogs is 8.5 v to 10.5 v (mean of 9.7 v).

[3] = test system: human patients with heart failure; settings: long-term oral use; cited from earlier work
[4] = test system: Cocker spaniels and Dobermanns with DCM; settings: for mean survival time / survival time, range: in addition to digoxin, enalapril, furosemide
Source text: A double-blind study has been carried out in order to evaluate the long-term efficacy and tolerance to pimobendan and its effect on long-term survival in cocker spaniels and Dobermanns with DCM.
Materials and Methods: Cocker spaniels (n=10) and Dobermanns (n=10) presenting to the Cardiopulmonary Service of the R(D)SVS with DCM were recruited for the study with owners' consent. After stabilization on conventional therapy with digoxin, enalapril, and furosemide, dogs received in addition either pimobendan (Vetmedin®) or placebo using a double-blind study design.

dogs with DCM = dogs with DCM in the LIVE study; cited from earlier work
[5] = Visit 1 (Day 0, prior to first treatment)

SMILES: COc1ccc(-c2nc3ccc(C4=NNC(=O)CC4C)cc3[nH]2)cc1 (stereo not drawn) [pimobendan, 4,5-dihydro-6-[2-(4-methoxyphenyl)-1H-benzimidazol-5-yl]-5-methyl-3(2H)-p-yridazone]
- Left Ventricular Reverse Remodeling (LVRR), share of treated dogs ([1]; dogs with asymptomatic DCM): ~80%
- dogs that went into the state of clinical symptoms (Class II) ([1]; interim analysis after 4 years, mono-therapy): significantly less dogs
- dogs that died or were euthanised due to cardiac reasons [2]: 2 dogs
- ISACHC classification Ib (Score=2), no clinical symptoms, share of cases [2]: 76%
- overall efficacy rated as very good or good, share of cases [2]: 85%
- vertebral heart sum, Max. [2, 5]: 14.5 v
- vertebral heart sum, Mean [2, 5]: 11.83 v
- vertebral heart sum, Median [2, 5]: 11.60 v
- vertebral heart sum, Min. [2, 5]: 9 v
- vertebral heart sum, Max. ([2]; Visit 3 (Day 56)): 14.1 v
- vertebral heart sum, Mean ([2]; Visit 3 (Day 56)): 11.71 v
- vertebral heart sum, Median ([2]; Visit 3 (Day 56)): 11.60 v
- vertebral heart sum, Min. ([2]; Visit 3 (Day 56)): 9.0 v
- change in mean heart size (vertebral heart sum), Mean ([2]; Visit 3-1 (Day 56 minus Day 0)): −0.15 v
- vertebral heart sum, change from baseline, Max. ([2]; Visit 3-1 (Day 56 minus Day 0)): 0.8 v
- vertebral heart sum, change from baseline, Median ([2]; Visit 3-1 (Day 56 minus Day 0)): 0.00 v
- vertebral heart sum, change from baseline, Min. ([2]; Visit 3-1 (Day 56 minus Day 0)): −1.9 v
- ISACHC heart failure classification improved, share of cases [2]: 84%
- median survival time [2]: 430 days
- effects on survival [3]: without significantly adverse effects on survival
- exercise tolerance and quality of life [3]: improvement in exercise tolerance and quality of life
- mean survival time ([4]; Dobermanns with DCM): 280 days
- survival time, range ([4]; Dobermanns with DCM): 42 to 369 days
- NYHA-class status of the patient ([4]; both breeds, addition to standard treatment regimen): significant improvement
- mean survival time ([4]; cocker spaniels with DCM): 612 days
- survival time, range ([4]; cocker spaniels with DCM): 61 to 1428 days
- tolerance / treatment-related adverse effects ([4]; dog, in vivo): well tolerated and no treatment-related adverse effects were noted

SMILES: CCOC(=O)[C@H](CCc1ccccc1)N[C@@H](C)C(=O)N1CCC[C@H]1C(=O)O [enalapril]
- time to treatment failure (dogs with DCM): 142.8 days

SMILES: CCOC(=O)[C@H](CCc1ccccc1)N[C@H]1CCc2ccccc2N(CC(=O)O)C1=O [benazepril, benazepril hydrochloride]
- dogs that died or were euthanised due to cardiac reasons [2]: 7 dogs
- ISACHC classification Ib (Score=2), no clinical symptoms, share of cases [2]: 48%
- overall efficacy rated as very good or good, share of cases [2]: 41%
- ISACHC heart failure classification improved, share of cases [2]: 56%
- median survival time [2]: 228 days
